How the values were obtained:
Type in all cases: in vivo
[1] = tested on: windgrass (Apera spica-venti); assay: Test C pre-/postemergence greenhouse test; settings: scale 0 to 100
Excerpt: (§1) Seeds of plant species selected from blackgrass (Alopecurus myosuroides), ryegrass, Italian (Lolium multiflorum), wheat, winter (winter wheat, Triticum aestivum), galium (catchweed bedstraw, Galium aparine), corn (Zea mays), crabgrass, large (Digitaria sanguinalis), foxtail, giant (Setaria faberii), johnsongrass (Sorghum halepense), lambsquarters (Chenopodium album), morningglory (Ipomoea coccinea), nutsedge, yellow (Cyperus esculentus), pigweed (Amaranthus retroflexus), ragweed (common ragweed, Ambrosia elatior), soybean (Glycine max), barnyardgrass (Echinochloa crus-galli), oilseed rape (Brassica napus), waterhemp (common waterhemp, Amaranthus rudis), pigweed, palmer (Amaranthus palmeri), kochia (Kochia scoparia), oat, wild (Avena fatua), surinam grass (Brachiaria decumbens), windgrass (Apera spica-venti), poinsettia, wild (Euphorbia heterophylla) and velvetleaf (Abutilon theophrasti) were planted into a silt loam soil and treated preemergence with test chemicals formulated in a non-phytotoxic solvent mixture which included a surfactant.
(§2) At the same time, plants selected from these crop and weed species and also chickweed (common chickweed, Stellaria media), buckwheat, wild (Polygonum convolvulus), mustard, wild (Sinapis arvensis), field poppy (Papaver rhoeas), field violet (Viola arvensis), nightshade (eastern black nightshade, Solanum ptycanthum), speedwell (bird's-eye speedwell, Veronica persica), horseweed (Conyza canadensis), cutleaf geranium (Geranium dissectum), and Canada thistle (Cirsium arvense) were planted in pots containing Redi-Earth® planting medium (Scotts Company, 14111 Scottslawn Road, Marysville, Ohio 43041) comprising spaghnum peat moss, vermiculite, wetting agent and starter nutrients and treated with postemergence applications of test chemicals formulated in the same manner. Plants ranged in height from 2 to 18 cm (1- to 4-leaf stage) for postemergence treatments. Treated plants and controls were maintained in a greenhouse for 13 to 21 d, after which time all species were compared to controls and visually evaluated. Plant response ratings, summarized in Table C-1 (postemergence) and C-2 (preemergence), are based on a scale of 0 to 100 where 0 is no effect and 100 is complete control. A dash (-) response means no test result.

[2] = tested on: waterhemp (common waterhemp, Amaranthus rudis); assay: Test C pre-/postemergence greenhouse test; settings: scale 0 to 100
Excerpt: as §1, §2

[3] = tested on: johnsongrass (Sorghum halepense); assay: Test C pre-/postemergence greenhouse test; settings: scale 0 to 100
Excerpt: as §1, §2

[4] = tested on: wheat, winter (winter wheat, Triticum aestivum); assay: Test C pre-/postemergence greenhouse test; settings: scale 0 to 100
Excerpt: as §1, §2

[5] = tested on: barnyardgrass (Echinochloa crus-galli); assay: Test C pre-/postemergence greenhouse test; settings: scale 0 to 100
Excerpt: as §1, §2

kochia (Kochia scoparia) [6] = assay: Test C pre-/postemergence greenhouse test; settings: scale 0 to 100
Excerpt: as §1, §2

[7] = tested on: ragweed (common ragweed, Ambrosia elatior); assay: Test A pre-/postemergence greenhouse test
Excerpt: (§3) Seeds of plant species selected from barnyardgrass (Echinochloa crus-galli), kochia (Kochia scoparia), ragweed (common ragweed, Ambrosia elatior), ryegrass, Italian (Lolium multiflorum), foxtail, giant (Setaria faberii), foxtail, green (Setaria viridis) and pigweed (Amaranthus retroflexus) were planted into a blend of loam soil and sand and treated preemergence with a directed soil spray using test chemicals formulated in a non-phytotoxic solvent mixture which included a surfactant.
(§4) At the same time, plants selected from these weed species and also wheat (Triticum aestivum), corn (Zea mays), blackgrass (Alopecurus myosuroides) and galium (catchweed bedstraw, Galium aparine) were planted in pots containing the same blend of loam soil and sand and treated with postemergence applications of test chemicals formulated in the same manner. Plants ranged in height from 2 to 10 cm and were in the one- to two-leaf stage for the postemergence treatment. Treated plants and untreated controls were maintained in a greenhouse for approximately 10 d, after which time all treated plants were compared to untreated controls and visually evaluated for injury. Plant response ratings, summarized in Table A, are based on a 0 to 100 scale where 0 is no effect and 100 is complete control. A dash (-) response means no test result.

[8] = tested on: ryegrass, Italian (Lolium multiflorum); assay: Test A pre-/postemergence greenhouse test
Excerpt: as §3, §4

[9] = tested on: pigweed (Amaranthus retroflexus); assay: Test A pre-/postemergence greenhouse test
Excerpt: as §3, §4

[10] = tested on: barnyardgrass (Echinochloa crus-galli); assay: Test A pre-/postemergence greenhouse test
Excerpt: as §3, §4

kochia (Kochia scoparia) [11] = assay: Test A pre-/postemergence greenhouse test
Excerpt: as §3, §4

[12] = tested on: blackgrass (Alopecurus myosuroides); assay: Test A postemergence greenhouse test
Excerpt: as §3, §4

corn (Zea mays) = assay: Test A postemergence greenhouse test
Excerpt: as §3, §4

[13] = tested on: wheat (Triticum aestivum); assay: Test A postemergence greenhouse test
Excerpt: as §3, §4

[14] = tested on: galium (catchweed bedstraw, Galium aparine); assay: Test A postemergence greenhouse test
Excerpt: as §3, §4

Cc1ccc2ccc(Cl)cc2c1-c1c(O)c(Cl)nn(C)c1=O [Cpd. No. 22]
Plant response rating, Windgrass ([1]; Postemergence, 16 g ai/ha): 85
Plant response rating, Windgrass ([1]; Postemergence, 31 g ai/ha): 85
Plant response rating, Windgrass ([1]; Postemergence, 62 g ai/ha): 100
Plant response rating, Windgrass ([1]; Postemergence, 125 g ai/ha): 100
Plant response rating, Windgrass ([1]; Preemergence, 31 g ai/ha): 80
Plant response rating, Windgrass ([1]; Preemergence, 61 g ai/ha): 0
Plant response rating, Windgrass ([1]; Preemergence, 62 g ai/ha): 85
Plant response rating, Windgrass ([1]; Preemergence, 125 g ai/ha): 100
Plant response rating, Waterhemp ([2]; Postemergence, 16 g ai/ha): 75
Plant response rating, Waterhemp ([2]; Postemergence, 31 g ai/ha): 85
Plant response rating, Waterhemp ([2]; Postemergence, 62 g ai/ha): 85
Plant response rating, Waterhemp ([2]; Postemergence, 125 g ai/ha): 90
Plant response rating, Waterhemp ([2]; Preemergence, 31 g ai/ha): 85
Plant response rating, Waterhemp ([2]; Preemergence, 61 g ai/ha): 70
Plant response rating, Waterhemp ([2]; Preemergence, 62 g ai/ha): 95
Plant response rating, Waterhemp ([2]; Preemergence, 125 g ai/ha): 95
Plant response rating, Johnsongrass ([3]; Postemergence, 16 g ai/ha): 20
Plant response rating, Johnsongrass ([3]; Postemergence, 31 g ai/ha): 40
Plant response rating, Johnsongrass ([3]; Postemergence, 62 g ai/ha): 50
Plant response rating, Johnsongrass ([3]; Postemergence, 125 g ai/ha): 60
Plant response rating, Johnsongrass ([3]; Preemergence, 31 g ai/ha): 30
Plant response rating, Johnsongrass ([3]; Preemergence, 61 g ai/ha): 5
Plant response rating, Johnsongrass ([3]; Preemergence, 62 g ai/ha): 50
Plant response rating, Johnsongrass ([3]; Preemergence, 125 g ai/ha): 70
Plant response rating, Wheat ([4]; Postemergence, 16 g ai/ha): 85
Plant response rating, Wheat ([4]; Postemergence, 31 g ai/ha): 90
Plant response rating, Wheat ([4]; Postemergence, 62 g ai/ha): 90
Plant response rating, Wheat ([4]; Postemergence, 125 g ai/ha): 95
Plant response rating, Wheat ([4]; Preemergence, 31 g ai/ha): 85
Plant response rating, Wheat ([4]; Preemergence, 61 g ai/ha): 60
Plant response rating, Wheat ([4]; Preemergence, 62 g ai/ha): 95
Plant response rating, Wheat ([4]; Preemergence, 125 g ai/ha): 100
Plant response rating, Barnyardgrass ([5]; Postemergence, 16 g ai/ha): 85
Plant response rating, Barnyardgrass ([5]; Postemergence, 31 g ai/ha): 90
Plant response rating, Barnyardgrass ([5]; Postemergence, 62 g ai/ha): 95
Plant response rating, Barnyardgrass ([5]; Postemergence, 125 g ai/ha): 95
Plant response rating, Barnyardgrass ([5]; Preemergence, 31 g ai/ha): 65
Plant response rating, Barnyardgrass ([5]; Preemergence, 61 g ai/ha): 5
Plant response rating, Barnyardgrass ([5]; Preemergence, 62 g ai/ha): 85
Plant response rating, Barnyardgrass ([5]; Preemergence, 125 g ai/ha): 100
Plant response rating, Kochia (kochia (Kochia scoparia) [6]; Postemergence, 16 g ai/ha): 25
Plant response rating, Kochia (kochia (Kochia scoparia) [6]; Postemergence, 31 g ai/ha): 35
Plant response rating, Kochia (kochia (Kochia scoparia) [6]; Postemergence, 62 g ai/ha): 65
Plant response rating, Kochia (kochia (Kochia scoparia) [6]; Postemergence, 125 g ai/ha): 70
Plant response rating, Kochia (kochia (Kochia scoparia) [6]; Preemergence, 31 g ai/ha): 5
Plant response rating, Kochia (kochia (Kochia scoparia) [6]; Preemergence, 61 g ai/ha): 0
Plant response rating, Kochia (kochia (Kochia scoparia) [6]; Preemergence, 62 g ai/ha): 80
Plant response rating, Kochia (kochia (Kochia scoparia) [6]; Preemergence, 125 g ai/ha): 95
Plant response rating (0 to 100 scale) ([7]; Postemergence, 31 g ai/ha): 100
Plant response rating (0 to 100 scale) ([7]; Postemergence, 125 g ai/ha): 100
Plant response rating (0 to 100 scale) ([7]; Preemergence, 31 g ai/ha): 100
Plant response rating (0 to 100 scale) ([7]; Preemergence, 125 g ai/ha): 100
Plant response rating (0 to 100 scale) ([8]; Postemergence, 31 g ai/ha): 100
Plant response rating (0 to 100 scale) ([8]; Postemergence, 125 g ai/ha): 100
Plant response rating (0 to 100 scale) ([8]; Preemergence, 31 g ai/ha): 90
Plant response rating (0 to 100 scale) ([8]; Preemergence, 125 g ai/ha): 100
Plant response rating (0 to 100 scale) ([9]; Postemergence, 31 g ai/ha): 100
Plant response rating (0 to 100 scale) ([9]; Postemergence, 125 g ai/ha): 100
Plant response rating (0 to 100 scale) ([9]; Preemergence, 31 g ai/ha): 100
Plant response rating (0 to 100 scale) ([9]; Preemergence, 125 g ai/ha): 100
Plant response rating (0 to 100 scale) ([10]; Postemergence, 31 g ai/ha): 100
Plant response rating (0 to 100 scale) ([10]; Postemergence, 125 g ai/ha): 100
Plant response rating (0 to 100 scale) ([10]; Preemergence, 31 g ai/ha): 100
Plant response rating (0 to 100 scale) ([10]; Preemergence, 125 g ai/ha): 100
Plant response rating (0 to 100 scale) (kochia (Kochia scoparia) [11]; Postemergence, 31 g ai/ha): 60
Plant response rating (0 to 100 scale) (kochia (Kochia scoparia) [11]; Postemergence, 125 g ai/ha): 100
Plant response rating (0 to 100 scale) (kochia (Kochia scoparia) [11]; Preemergence, 31 g ai/ha): 10
Plant response rating (0 to 100 scale) (kochia (Kochia scoparia) [11]; Preemergence, 125 g ai/ha): 90
Plant response rating (0 to 100 scale) ([12]; 31 g ai/ha): 70
Plant response rating (0 to 100 scale) ([12]; 125 g ai/ha): 100
Plant response rating (0 to 100 scale) (corn (Zea mays); 31 g ai/ha): 0
Plant response rating (0 to 100 scale) (corn (Zea mays); 125 g ai/ha): 10
Plant response rating (0 to 100 scale) ([13]; 31 g ai/ha): 100
Plant response rating (0 to 100 scale) ([13]; 125 g ai/ha): 100
Plant response rating (0 to 100 scale) ([14]; 31 g ai/ha): 100
Plant response rating (0 to 100 scale) ([14]; 125 g ai/ha): 100
